Results on 22 compounds are retold here after patent publication US9493448B2, “Cycloalkane derivatives” (Daiichi Sankyo Company, Limited, priority 2012, dated 2016).

Assay [1] concerns the target hNav 1.7 (Homo sapiens (Human), UniProt Q15858). The experiment in a line: Electrophysiological evaluation, automated patch clamp IonWorks Quattro (Population Patch Clamp mode). To be noted: HEK293A cells stably expressing hNav 1.7/β1/β2; response to second depolarization pulse, pre-pulse potential set to V1/2; read-out: hNav1.7 IC50. The format is cell-based.
Assay [2] has as its system mice and rats affected by thermal hyperalgesia. The assay is described as follows: Thermal hyperalgesia assay.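 Further: measurement times set by the study director and not disclosed.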 The assay is classed as in vivo. To be noted: oral administration, constant dose, against the vehicle treatment group; latency to escape behaviors after thermal stimulation of hind paw.

Chain of hNav 1.7 (Q15858 whole entry): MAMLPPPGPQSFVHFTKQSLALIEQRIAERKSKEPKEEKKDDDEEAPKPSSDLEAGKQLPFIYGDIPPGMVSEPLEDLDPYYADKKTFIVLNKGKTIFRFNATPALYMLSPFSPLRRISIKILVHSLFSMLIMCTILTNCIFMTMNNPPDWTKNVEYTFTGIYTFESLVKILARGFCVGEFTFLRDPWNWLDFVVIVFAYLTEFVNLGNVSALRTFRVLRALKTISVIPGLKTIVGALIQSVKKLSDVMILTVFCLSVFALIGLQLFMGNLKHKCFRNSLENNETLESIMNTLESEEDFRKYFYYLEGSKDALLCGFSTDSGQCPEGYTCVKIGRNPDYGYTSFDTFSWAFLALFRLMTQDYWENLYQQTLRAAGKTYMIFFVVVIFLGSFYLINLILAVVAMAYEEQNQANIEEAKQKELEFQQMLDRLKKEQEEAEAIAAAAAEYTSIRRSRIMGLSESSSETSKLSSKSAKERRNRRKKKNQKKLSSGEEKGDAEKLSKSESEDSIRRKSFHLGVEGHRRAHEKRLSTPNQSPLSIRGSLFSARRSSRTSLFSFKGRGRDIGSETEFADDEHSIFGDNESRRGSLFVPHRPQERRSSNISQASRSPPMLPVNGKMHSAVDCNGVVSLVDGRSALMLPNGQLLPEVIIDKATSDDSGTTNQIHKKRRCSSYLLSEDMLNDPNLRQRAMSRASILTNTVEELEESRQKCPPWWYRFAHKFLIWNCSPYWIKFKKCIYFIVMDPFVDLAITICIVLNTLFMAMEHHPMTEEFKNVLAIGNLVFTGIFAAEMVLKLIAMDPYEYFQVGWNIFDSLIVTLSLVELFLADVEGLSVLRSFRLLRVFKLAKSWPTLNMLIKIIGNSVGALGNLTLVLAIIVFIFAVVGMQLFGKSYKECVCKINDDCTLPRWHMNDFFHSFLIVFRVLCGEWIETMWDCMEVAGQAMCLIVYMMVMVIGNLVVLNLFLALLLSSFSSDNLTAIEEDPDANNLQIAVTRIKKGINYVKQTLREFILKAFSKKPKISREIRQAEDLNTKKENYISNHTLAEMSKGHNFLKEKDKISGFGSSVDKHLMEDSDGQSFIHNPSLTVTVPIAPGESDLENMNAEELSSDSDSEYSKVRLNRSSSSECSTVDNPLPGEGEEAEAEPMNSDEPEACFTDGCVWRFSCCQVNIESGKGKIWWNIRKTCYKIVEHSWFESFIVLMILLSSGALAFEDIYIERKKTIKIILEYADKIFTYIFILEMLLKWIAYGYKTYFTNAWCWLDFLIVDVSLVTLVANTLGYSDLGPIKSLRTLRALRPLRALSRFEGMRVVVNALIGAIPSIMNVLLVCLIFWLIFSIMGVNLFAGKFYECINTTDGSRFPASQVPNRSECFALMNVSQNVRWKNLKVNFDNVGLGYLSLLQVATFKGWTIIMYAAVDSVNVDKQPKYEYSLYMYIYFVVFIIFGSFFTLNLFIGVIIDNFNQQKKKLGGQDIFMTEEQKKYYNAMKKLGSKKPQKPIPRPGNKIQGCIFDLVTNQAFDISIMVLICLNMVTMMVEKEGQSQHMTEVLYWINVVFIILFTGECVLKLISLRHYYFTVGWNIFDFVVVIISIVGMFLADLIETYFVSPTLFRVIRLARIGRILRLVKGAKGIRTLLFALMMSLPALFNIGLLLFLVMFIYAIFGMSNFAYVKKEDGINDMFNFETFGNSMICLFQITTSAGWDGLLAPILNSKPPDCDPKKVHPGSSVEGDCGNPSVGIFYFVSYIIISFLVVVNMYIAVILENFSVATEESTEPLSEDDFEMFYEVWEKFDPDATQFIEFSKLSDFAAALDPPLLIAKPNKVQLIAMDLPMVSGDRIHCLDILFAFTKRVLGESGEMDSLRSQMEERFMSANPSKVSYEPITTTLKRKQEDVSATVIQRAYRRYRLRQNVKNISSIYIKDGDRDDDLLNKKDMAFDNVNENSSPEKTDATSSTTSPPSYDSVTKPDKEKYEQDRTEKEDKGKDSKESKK
Chain of hNav 1.7 (Q07699 19-218 partner): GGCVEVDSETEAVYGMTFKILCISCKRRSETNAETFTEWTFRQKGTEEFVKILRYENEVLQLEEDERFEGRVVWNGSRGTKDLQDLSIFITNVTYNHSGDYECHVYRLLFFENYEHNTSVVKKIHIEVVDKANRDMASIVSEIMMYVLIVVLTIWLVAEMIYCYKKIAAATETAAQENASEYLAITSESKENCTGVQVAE
Chain of hNav 1.7 (O60939 30-215 partner): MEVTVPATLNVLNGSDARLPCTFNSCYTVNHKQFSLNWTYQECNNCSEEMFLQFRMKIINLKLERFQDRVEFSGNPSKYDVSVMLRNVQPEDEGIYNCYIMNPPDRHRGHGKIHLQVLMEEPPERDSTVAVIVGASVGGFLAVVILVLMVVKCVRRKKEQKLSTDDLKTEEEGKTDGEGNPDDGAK

Turning to `O=S(=O)(Nc1ccncn1)c1cc(F)c(O[C@H]2CC(F)(F)CC[C@@H]2c2cn[nH]c2)cc1F` (relative stereo) [Example 103, 4-{[(1S*,2R*)-5,5-Difluoro-2-(1H-pyrazol-4-yl)cyclohexyl]oxy}-2,5-difluoro-N-(pyrimidin-4-yl)benzenesulfonamide], in assay [1], the IC50 came out at 320 nM. In addition, in assay [2], the “Ratio of improving pain score (%)” value is listed as “B (“B” when the rate was 31 to 60%)”.

`O=S(=O)(Nc1ccncn1)c1c(F)cc(O[C@H]2CC(F)(F)CC[C@@H]2c2cn[nH]c2)cc1F` (relative stereo) [Example 104, 4-{[(1S*,2R*)-5,5-Difluoro-2-(1H-pyrazol-4-yl)cyclohexyl]oxy}-2,6-difluoro-N-(pyrimidin-4-yl)benzenesulfonamide]: the 50% inhibitory concentration (IC50) in assay [1] came out at 71 nM. The “Ratio of improving pain score (%)” value in assay [2] is given as “B (“B” when the rate was 31 to 60%)”.

Regarding `Cn1nccc1[C@H]1CCC(F)(F)C[C@@H]1Oc1ccc(S(=O)(=O)Nc2ccncn2)c(F)c1F` (relative stereo) [Example 105, 4-{[(1S*,2R*)-5,5-Difluoro-2-(1-methyl-1H-pyrazol-5-yl)cyclohexyl]oxy}-2,3-difluoro-N-(pyrimidin-4-yl)benzenesulfonamide], in assay [1], the IC50 was determined as 220 nM. The “Ratio of improving pain score (%)” value in assay [2] is “A (“A” when the rate was 61 to 100%)”.

For `Cn1nccc1[C@H]1CC(F)(F)C[C@@H]1Oc1cc(F)c(S(=O)(=O)Nc2ccncn2)cc1F` (relative stereo) [Example 107, 4-{[(1S*,2R*)-4,4-Difluoro-2-(1-methyl-1H-pyrazol-5-yl)cyclopentyl]oxy}-2,5-difluoro-N-(pyrimidin-4-yl)benzenesulfonamide], the IC50 in assay [1] is 42 nM. Also, the “Ratio of improving pain score (%)” value in assay [2] is “B (“B” when the rate was 31 to 60%)”.

For `O=S(=O)(Nc1ccncn1)c1ccc(O[C@H]2CCCC[C@@H]2c2cn[nH]c2)cc1F` (relative stereo) [Example 108, 2-Fluoro-4-{[(1S*,2R*)-2-(1H-pyrazol-4-yl)cyclohexyl]oxy}-N-(pyrimidin-4-yl)benzenesulfonamide], in assay [1], the IC50 amounted to 1700 nM. The “Ratio of improving pain score (%)” value in assay [2] is given as “A (“A” when the rate was 61 to 100%)”.

As to `Cn1nccc1[C@H]1CCC(F)(F)C[C@@H]1Oc1cc(F)c(S(=O)(=O)Nc2ccncn2)c(F)c1` (relative stereo) [Example 109, 4-{[(1S*,2R*)-5,5-Difluoro-2-(1-methyl-1H-pyrazol-5-yl)cyclohexyl]oxy}-2,6-difluoro-N-(pyrimidin-4-yl)benzenesulfonamide], in assay [1], the IC50 worked out at 50 nM. In addition, in assay [2], the “Ratio of improving pain score (%)” value is given as “B (“B” when the rate was 31 to 60%)”.

As to `Cn1nccc1[C@H]1CCC(F)(F)C[C@@H]1Oc1ccc(S(=O)(=O)Nc2ccncn2)c(F)c1` (relative stereo) [Example 110, 4-{[(1S*,2R*)-5,5-Difluoro-2-(1-methyl-1H-pyrazol-5-yl)cyclohexyl]oxy}-2-fluoro-N-(pyrimidin-4-yl)benzenesulfonamide], in assay [1], the IC50 was determined as 300 nM. Further, the “Ratio of improving pain score (%)” value in assay [2] was “B (“B” when the rate was 31 to 60%)”.

As for `Cn1nccc1[C@H]1CCC[C@@H]1Oc1cc(F)c(S(=O)(=O)Nc2ccnc(F)n2)c(F)c1` (relative stereo) [Example 111, 2,6-Difluoro-N-(2-fluoropyrimidin-4-yl)-4-{[(1S*,2R*)-2-(1-methyl-1H-pyrazol-5-yl)cyclopentyl]oxy}benzenesulfonamide], in assay [1], the IC50 came to 30 nM. For the same compound, in assay [2], the “Ratio of improving pain score (%)” value is “A (“A” when the rate was 61 to 100%)”.

Consider `Cn1nccc1[C@H]1CCC[C@@H]1Oc1ccc(S(=O)(=O)Nc2ccnc(F)n2)c(F)c1` (relative stereo) [Example 114, 2-Fluoro-N-(2-fluoropyrimidin-4-yl)-4-{[(1S*,2R*)-2-(1-methyl-1H-pyrazol-5-yl)cyclopentyl]oxy}benzenesulfonamide], for which the 50% inhibitory concentration (IC50) in assay [1] was 78 nM. Moreover, the “Ratio of improving pain score (%)” value in assay [2] is reported as “B (“B” when the rate was 31 to 60%)”.

For the compound `CCn1nccc1[C@H]1CCC[C@@H]1Oc1ccc(S(=O)(=O)Nc2ccncn2)c(F)c1` (relative stereo) [Example 115, 4-{[(1S*,2R*)-2-(1-Ethyl-1H-pyrazol-5-yl)cyclopentyl]oxy}-2-fluoro-N-(pyrimidin-4-yl)benzenesulfonamide], the IC50 in assay [1] turned out to be 580 nM. Moreover, the “Ratio of improving pain score (%)” value in assay [2] is listed as “A (“A” when the rate was 61 to 100%)”.

Consider `Nc1n[nH]cc1[C@H]1CCCC[C@@H]1Oc1cc(F)c(S(=O)(=O)Nc2cscn2)c(F)c1` (relative stereo) [Example 116, 4-{[(1S*,2R*)-2-(3-Amino-1H-pyrazol-4-yl)cyclohexyl]oxy}-2,6-difluoro-N-(1,3-thiazol-4-yl)benzenesulfonamide], for which the IC50 in assay [1] was 170 nM. In addition, in assay [2], the “Ratio of improving pain score (%)” value is listed as “B (“B” when the rate was 31 to 60%)”.

With `CO[C@@H]1C[C@H](Oc2cc(F)c(S(=O)(=O)Nc3ccncn3)cc2F)[C@@H](c2ccnn2C)C1` (relative stereo) [Example 120, 2,5-Difluoro-4-{[(1S*,2R*,4S*)-4-methoxy-2-(1-methyl-1H-pyrazol-5-yl)cyclopentyl]oxy}-N-(pyrimidin-4-yl)benzenesulfonamide], the IC50 in assay [1] was 270 nM. In addition, the “Ratio of improving pain score (%)” value in assay [2] is listed as “C (“C” when the rate was 0 to 30%)”.

On to `Cc1cc(S(=O)(=O)Nc2nncs2)c(F)cc1O[C@H]1CC(F)(F)CC[C@@H]1c1ccnn1C` (relative stereo) [Example 125, 4-{[(1S*,2R*)-5,5-Difluoro-2-(1-methyl-1H-pyrazol-5-yl)cyclohexyl]oxy}-2-fluoro-5-methyl-N-(1,3,4-thiadiazol-2-yl)benzenesulfonamide], for which, in assay [1], the IC50 was 200 nM. For the same compound, the “Ratio of improving pain score (%)” value in assay [2] is “C (“C” when the rate was 0 to 30%)”.

As for `Cc1cc(S(=O)(=O)Nc2ccncn2)c(F)cc1O[C@H]1CCC(F)(F)C[C@@H]1c1ccnn1C` (relative stereo) [Example 126, 4-{[(1S*,2R*)-4,4-Difluoro-2-(1-methyl-1H-pyrazol-5-yl)cyclohexyl]oxy}-2-fluoro-5-methyl-N-(pyrimidin-4-yl)benzenesulfonamide], the IC50 in assay [1] was 14 nM. Besides, the “Ratio of improving pain score (%)” value in assay [2] is reported as “C (“C” when the rate was 0 to 30%)”.

As to `Cc1cc(S(=O)(=O)Nc2ccncn2)c(F)cc1O[C@H]1CC(F)(F)CC[C@@H]1c1cn[nH]c1` (relative stereo) [Example 127, 4-{[(1S*,2R*)-5,5-Difluoro-2-(1H-pyrazol-4-yl)cyclohexyl]oxy}-2-fluoro-5-methyl-N-(pyrimidin-4-yl)benzenesulfonamide], in assay [1], the half-maximal inhibitory concentration (IC50) stood at 120 nM. Also, in assay [2], the “Ratio of improving pain score (%)” value is “A (“A” when the rate was 61 to 100%)”.

Consider `Cn1nccc1[C@H]1CC(F)(F)CC[C@@H]1Oc1cc(F)c(S(=O)(=O)Nc2ccncn2)c(F)c1` (relative stereo) [Example 129, 4-{[(1S*,2R*)-4,4-Difluoro-2-(1-methyl-1H-pyrazol-5-yl)cyclohexyl]oxy}-2,6-difluoro-N-(pyrimidin-4-yl)benzenesulfonamide], for which, in assay [1], the IC50 was 100 nM. Moreover, the “Ratio of improving pain score (%)” value in assay [2] was “C (“C” when the rate was 0 to 30%)”.

On to `Cn1nccc1[C@H]1CC(F)(F)CC[C@@H]1Oc1cc(F)c(S(=O)(=O)Nc2ccncn2)cc1Cl` (relative stereo) [Example 131, 5-Chloro-4-{[(1S*,2R*)-4,4-difluoro-2-(1-methyl-1H-pyrazol-5-yl)cyclohexyl]oxy}-2-fluoro-N-(pyrimidin-4-yl)benzenesulfonamide], for which the IC50 in assay [1] turned out to be 59 nM. Besides, the “Ratio of improving pain score (%)” value in assay [2] is “C (“C” when the rate was 0 to 30%)”.

On to `Cn1nccc1[C@H]1CC(F)(F)C[C@@H]1Oc1ccc(S(=O)(=O)Nc2ccncn2)c(F)c1F` (relative stereo) [Example 132, 4-{[(1S*,2R*)-4,4-Difluoro-2-(1-methyl-1H-pyrazol-5-yl)cyclopentyl]oxy}-2,3-difluoro-N-(pyrimidin-4-yl)benzenesulfonamide], for which the 50% inhibitory concentration (IC50) in assay [1] turned out to be 200 nM. Further, the “Ratio of improving pain score (%)” value in assay [2] is given as “A (“A” when the rate was 61 to 100%)”.

For the compound `Cc1cc(S(=O)(=O)Nc2ccncn2)c(F)cc1O[C@H]1CC(F)(F)C[C@@H]1c1ccnn1C` (relative stereo) [Example 133, 4-{[(1S*,2R*)-4,4-Difluoro-2-(1-methyl-1H-pyrazol-5-yl)cyclopentyl]oxy}-2-fluoro-5-methyl-N-(pyrimidin-4-yl)benzenesulfonamide], the IC50 in assay [1] was 57 nM. For the same compound, the “Ratio of improving pain score (%)” value in assay [2] is “A (“A” when the rate was 61 to 100%)”.

In the case of `Cn1nccc1[C@H]1CCC(F)(F)C[C@@H]1Oc1cc(F)c(S(=O)(=O)Nc2nncs2)cc1Cl` (relative stereo) [Example 134, 5-Chloro-4-{[(1S*,2R*)-5,5-difluoro-2-(1-methyl-1H-pyrazol-5-yl)cyclohexyl]oxy}-2-fluoro-N-(1,3,4-thiadiazol-2-yl)benzenesulfonamide], in assay [1], the IC50 stood at 34 nM. Besides, the “Ratio of improving pain score (%)” value in assay [2] is on record as “B (“B” when the rate was 31 to 60%)”.

As to `Cn1nccc1[C@H]1CC(F)(F)C[C@@H]1Oc1cc(F)c(S(=O)(=O)Nc2ccncn2)c(F)c1` (relative stereo) [Example 135, 4-{[(1S*,2R*)-4,4-Difluoro-2-(1-methyl-1H-pyrazol-5-yl)cyclopentyl]oxy}-2,6-difluoro-N-(pyrimidin-4-yl)benzenesulfonamide], the IC50 in assay [1] worked out at 51 nM. Moreover, the “Ratio of improving pain score (%)” value in assay [2] was “B (“B” when the rate was 31 to 60%)”.

In the case of `Cn1nccc1[C@H]1CC(F)(F)C[C@@H]1Oc1ccc(S(=O)(=O)Nc2ccncn2)c(F)c1` (relative stereo) [Example 136, 4-{[(1S*,2R*)-4,4-Difluoro-2-(1-methyl-1H-pyrazol-5-yl)cyclopentyl]oxy}-2-fluoro-N-(pyrimidin-4-yl)benzenesulfonamide], the IC50 in assay [1] worked out at 290 nM. In addition, the “Ratio of improving pain score (%)” value in assay [2] was “B (“B” when the rate was 31 to 60%)”.
